The test concerns glaucoma-associated-EV-complex in POAG patient's aqueous humor. Put plainly: Treating POAG aqueous humor samples with bimatoprost, EDC fixation, negative staining and TEM imaging. More on the design: species or system human. The source says:
Methods for treating POAG aqueous humor samples with bimatoprost, and fixation of fluid with EDC, negative staining and TEM imaging. We sought to determine the effect of bimatoprost on EVs in aqueous humor of patients with glaucoma. To do this, we diluted the POAG aqueous humor sample with tris buffered saline (1:10 dilution) and added 1:1 volume of diluted POAG sample with either tris buffered saline (control) or bimatoprost. Lumigan was obtained directly from the dispensing bottle and was NOT diluted. 10 ul of POAG sample was mixed with 10 ul of TBS or 10 ul POAG sample was mixed with 10 ul of undiluted Lumigan. The tubes were then incubated in a thermocycler PCR machine and were allowed to sit for 72 hours at 37° C. The samples were then diluted (1:10). Next, we fixed with EDC on an electron microscopy grid using the following protocol. For 1 mls of EDC/ETT solution in 0.1 M 1-Methylimidazole buffer (pH 8.0). • 1. EDC-HCl powder should be stored at −20° C. under argon. To avoid condensation of humidity, only open bottles after they reached room temperature, i.e. take the bottle out of freezer 1 h before weighing out sample. • 2. EDC/5-ETT solution should be made at most 1 h prior to use. • 3. Pipette 5.76 ml of 0.1 M 1-Methylimidazole buffer (pH 8.0) into a 15 ml tube, vortex vigorously. • 4. Carefully spoon out the 0.078 g of ETT found in the “G” group, onto a piece of paper. Carefully pour the 0.078 g into the tube. • 5. Using the pH paper and pipet to check to be pH 8.0 • 6. Use a weighing paper to measure out 0.12 g of EDC. Carefully pour into the tube. Vortex vigorously. • 7. Discard unused solution. • 8. Using the pH paper and pipet to check to be pH 8.0 Poly L-lysine grids, EDC fixation, Glut-fixation, UA stain. • 1. Use formvar coated grids. • 2. Place them facing formvar side down to poly-lysine drops and let them sit for 5-10 min. • 3. Then you will withdraw the Poly-L-lysine • 4. Fasten down a piece of parchment paper to a 100 mm dish with tape or weight. Place grid down on parchment paper. Mix EDC solution with EVs • 1. Mix 2.5 ul of (Cold) EVs with 5 ul of (Cold) EDC solution in 1.5 ml siliconized tube. • 2. In the cold room, apply 5 μl sample (Aqueous humor) to the grid and wait 15 minutes to dry and for the EVs to settle to the bottom of the grid. • 3. Place in a humidified chamber and incubate at […] for at least 3 hours. Secondary Fixation with Glut • 1. Remove EDC-EV solution from the sample using a pipette. • 2. Fix with Glut, add 2-5 ul of glut fix and wait for 5 min • 3. Remove Glut with Pipet or lens paper Rinse Glut and EDC • 1. Apply water bubble to grid for 5 min • 2. Remove water bubble with pipette • 3. Add 5 ul of uranyl acetate onto grid (1 drop, blotting after the drop) • 4. Let grid dry, and place in grid box • 5. Take off stain with pipette Samples were then imaged with TEM. Treating large EV complexes with Bimatoprost breaks up the EV-complex, when compared to controls. To determine if glaucoma-associated-EV-aggregates visualized using the EDC fixation method were indeed a potential mediator of POAG, we hypothesized that treating it with a known glaucoma medication would change the morphology of the glaucoma-associated-EV-aggregates. Therefore, we opted to use Bimatoprost (lumigan), which is a ocular hypotensive agent that lowers IOP in normal, ocular hypertensive, and glaucomatous eyes. […]

`CCNC(=O)CCC/C=C\C[C@@H]1[C@@H](/C=C/[C@@H](O)CCc2ccccc2)[C@H](O)C[C@@H]1O` [bimatoprost]: the “evidence of large extracellular matrix or glaucoma-associated-EV-aggregates in TEM photographs” value (POAG aqueous humor samples treated with bimatoprost (FIG. 11 c-d)) is recorded as “no evidence of large extracellular matrix nor glaucoma-associated-EV-aggregates”. For the setting “POAG patient's aqueous humor, first subject (FIG. 11), undiluted Lumigan 1:1 with 1:10 diluted sample, 37° C. for 72 hours, TEM”, the “number of glaucoma-associated-EV-complex, compared to POAG sample with placebo treatment” value is “substantial reduction”. Besides, the “size of POAG-associated EV complexes, compared to untreated glaucoma samples” value (aqueous humor of a patient with POAG (FIG. 11), TEM) was “reduces the size”. Where the note is “aqueous humor of second subject with glaucoma (FIG. 13), TEM”, the “size of POAG-associated EV complexes, compared to control-treated glaucoma samples” value is “reduces the size”. Further, the “number of glaucoma-associated-EV-complexes, compared to placebo (buffered saline)” value (second human subject with glaucoma (FIG. 12-13), 37° C. for 72 hours, TEM) is reported as “substantial reduction”.

For the origin of these results see patent US11752175B2, “Compositions and methods for glaucoma” (AUFBAU MEDICAL INNOVATIONS LIMITED, priority 2018, dated 2023).
